≈ marks a conversion by molar mass, not a printed value. Read-outs that look alike come from different tables or passages of the source.
Experiments:
[1] = tested on: M. kansasii CNCTC My 235/80 (ATCC 12478); assay: Antimycobacterial microdilution MABA, M. kansasii; assay type: cell-based, Mycobacterium kansasii; conditions: Mycobacterium kansasii, ATCC12478, pH 6.6, read-out: M. kans. ATCC 12478 MIC, Middlebrook 7H9 with OADC, pH 6.6, MABA
[2] = tested on: Staphylococcus aureus CCM 4516/08; assay: Antibacterial microdilution broth, SA; assay type: cell-based; conditions: Staphylococcus aureus
[3] = tested on: Lichtheimia corymbifera 272; assay: Antifungal microdilution broth, LC; assay type: cell-based; conditions: read-out: MIC LC
[4] = tested on: M. avium ssp. avium CNCTC My 80/72 (ATCC 15769); assay: Antimycobacterial microdilution MABA, M. avium; assay type: cell-based, Mycobacterium avium; conditions: for MIC: Mycobacterium avium, ATCC15769, pH 6.6, read-out: M. avium ATCC 15769 MIC
[5] = tested on: Escherichia coli CCM 4517; assay: Antibacterial microdilution broth, EC; assay type: cell-based; conditions: Escherichia coli, read-out: MIC EC
[6] = tested on: Staphylococcus epidermidis H 6966/08; assay: Antibacterial microdilution broth, SE; assay type: cell-based; conditions: Staphylococcus epidermidis, read-out: MIC SE
[7] = tested on: Mycobacterium tuberculosis H37Rv CNCTC My 331/88 (ATCC 27294); assay: Antimycobacterial microdilution MABA, M. tuberculosis; assay type: cell-based; conditions: for Mtb H37Rv ATCC 27294 MIC: Middlebrook 7H9 with OADC growth supplement, pH = 6.6, MABA; for MIC: Mycobacterium tuberculosis, read-out: Mtb H37Rv ATCC 27294 MIC, Middlebrook 7H9 with OADC growth supplement, pH = 6.6, MABA
[8] = tested on: Staphylococcus aureus H 5996/08 methicillin resistant; assay: microbe, parasite or virus in culture; assay type: cell-based; conditions: Staphylococcus aureus, MRSA, read-out: MIC MRSA
[9] = tested on: Candida tropicalis 156; assay: Antifungal microdilution broth, CT; assay type: cell-based; conditions: read-out: MIC CT
[10] = tested on: Candida albicans ATCC 44859; assay: Antifungal microdilution broth, CA; assay type: cell-based; conditions: Candida albicans, read-out: MIC CA
[11] = tested on: Enterococcus sp. J 14365/08; assay: Antibacterial microdilution broth, EF; assay type: cell-based; conditions: Enterococcus, read-out: MIC EF
[12] = tested on: Candida glabrata 20/I; assay: Antifungal microdilution broth, CG; assay type: cell-based; conditions: Nakaseomyces glabratus, 20/I, read-out: MIC CG
[13] = tested on: Aspergillus fumigatus 231; assay: Antifungal microdilution broth, AF; assay type: cell-based; conditions: read-out: MIC AF
[14] = tested on: Trichophyton interdigitale 445; assay: Antifungal microdilution broth, TI; assay type: cell-based; conditions: read-out: MIC TI
[15] = tested on: Pseudomonas aeruginosa CCM 1961; assay: Antibacterial microdilution broth, PA; assay type: cell-based; conditions: Pseudomonas aeruginosa, read-out: MIC PA
[16] = tested on: Candida krusei E28; assay: Antifungal microdilution broth, CK; assay type: cell-based; conditions: Pichia kudriavzevii, read-out: MIC CK
[17] = tested on: Trichosporon asahii 1188; assay: Antifungal microdilution broth, TA; assay type: cell-based; conditions: read-out: MIC TA
[18] = tested on: Mycobacterium smegmatis CCM 4622 (ATCC 607); assay: Antimycobacterial microdilution, M. smegmatis; assay type: cell-based; conditions: Mycolicibacterium smegmatis, read-out: M. smeg. ATCC 607 MIC
[19] = CCM4516, 24 h, read-out: MIC SA, 24 h
[20] = CCM4516, 48 h, read-out: MIC SA, 48 h
[21] = Lichtheimia corymbifera, 272, 24 h
[22] = Lichtheimia corymbifera, 272, 48 h
[23] = Aspergillus fumigatus, 231, 24 h
[24] = Aspergillus fumigatus, 231, 48 h
[25] = Trichophyton interdigitale, 445, 72 h
[26] = Trichophyton interdigitale, 445, 120 h
[27] = Trichosporon asahii, 1188, 24 h
[28] = Trichosporon asahii, 1188, 48 h

Structure (SMILES)	MIC [1]	MIC [2, 19]	MIC [2, 20]	MIC [3, 21]	MIC [3, 22]	MIC [4]	MIC ([5]; CCM4517, 24 h)	MIC ([5]; CCM4517, 48 h)	MIC ([6]; H6966/08, 24 h)	MIC ([6]; H6966/08, 48 h)	MIC [7]	melting point	MIC ([8]; 24 h)	MIC ([8]; 48 h)	MIC ([9]; Candida tropicalis, 156, 24 h)	MIC ([9]; Candida tropicalis, 156, 48 h)	MIC ([10]; ATCC44859, 24 h)	MIC ([10]; ATCC44859, 48 h)	MIC ([11]; SP.J14365/08, 24 h)	MIC ([11]; SP.J14365/08, 48 h)	further results
O=C(Nc1cnc(Cl)cn1)c1ccc(Br)cc1 [Compound 2m]	> 100 µg/mL	> 125 µM	> 125 µM	> 125 µM	> 125 µM	> 100 µg/mL	> 125 µM	> 125 µM	> 125 µM	> 125 µM	> 100 µg/mL	229.2 to 230.5 °C	> 125 µM	> 125 µM	> 125 µM	> 125 µM	> 125 µM	> 125 µM	> 125 µM	> 125 µM	Mtb H37Rv ATCC 27294 MIC [7]: >100 µg/mL; MIC ([12]; 24 h): > 125 µM; MIC ([12]; 48 h): > 125 µM; MIC [13, 23]: > 125 µM; MIC [13, 24]: > 125 µM; MIC [14, 25]: > 125 µM; MIC [14, 26]: > 125 µM; MIC ([15]; CCM1961, 72 h): > 125 µM; MIC ([15]; CCM1961, 120 h): > 125 µM; MIC ([16]; E28, 24 h): > 125 µM; MIC ([16]; E28, 48 h): > 125 µM; MIC [17, 27]: > 125 µM; MIC [17, 28]: > 125 µM; MIC [18]: ≥ 500 µg/mL
O=C(Nc1cncc(Cl)n1)c1cccc(Cl)c1 [Compound 3k]	> 100 µg/mL	> 125 µM	> 125 µM	> 125 µM	> 125 µM	> 100 µg/mL	> 125 µM	> 125 µM	> 125 µM	> 125 µM	> 100 µg/mL	166 to 167.1 °C	> 125 µM	> 125 µM	> 125 µM	> 125 µM	> 125 µM	> 125 µM	> 125 µM	> 125 µM	Mtb H37Rv ATCC 27294 MIC [7]: >100 µg/mL; MIC ([12]; 24 h): > 125 µM; MIC ([12]; 48 h): > 125 µM; MIC [13, 23]: > 125 µM; MIC [13, 24]: > 125 µM; MIC [14, 25]: > 125 µM; MIC [14, 26]: > 125 µM; MIC ([15]; CCM1961, 72 h): > 125 µM; MIC ([15]; CCM1961, 120 h): > 125 µM; MIC ([16]; E28, 24 h): > 125 µM; MIC ([16]; E28, 48 h): > 125 µM; MIC [17, 27]: > 125 µM; MIC [17, 28]: > 125 µM; MIC [18]: ≥ 500 µg/mL
O=C(Nc1cnc(Cl)cn1)c1ccccc1 [Compound 2a]	> 100 µg/mL	250 µM (≈ 58.4 µg/mL)	250 µM (≈ 58.4 µg/mL)	> 500 µM	> 500 µM	> 100 µg/mL	> 500 µM	> 500 µM	500 µM (≈ 117 µg/mL)	500 µM (≈ 117 µg/mL)	> 100 µg/mL	162.5 to 163.5 °C	250 µM (≈ 58.4 µg/mL)	250 µM (≈ 58.4 µg/mL)	> 500 µM	> 500 µM	> 500 µM	> 500 µM	> 500 µM	> 500 µM	Mtb H37Rv ATCC 27294 MIC [7]: >100 µg/mL; MIC ([12]; 24 h): > 500 µM; MIC ([12]; 48 h): > 500 µM; MIC [13, 23]: > 500 µM; MIC [13, 24]: > 500 µM; MIC [14, 25]: > 500 µM; MIC [14, 26]: > 500 µM; MIC ([15]; CCM1961, 72 h): > 500 µM; MIC ([15]; CCM1961, 120 h): > 500 µM; MIC ([16]; E28, 24 h): > 500 µM; MIC ([16]; E28, 48 h): > 500 µM; MIC [17, 27]: > 500 µM; MIC [17, 28]: > 500 µM; MIC [18]: ≥ 500 µg/mL
CC(=O)Oc1cccc(C(=O)Nc2cnccn2)c1 [Compound 1c-Ac]	> 100 µg/mL	> 500 µM	> 500 µM	> 500 µM	> 500 µM	> 100 µg/mL	> 500 µM	> 500 µM	> 500 µM	> 500 µM	> 100 µg/mL	168.4 to 169.5 °C	> 500 µM	> 500 µM	> 500 µM	> 500 µM	> 500 µM	> 500 µM	> 500 µM	> 500 µM	MIC ([12]; 24 h): > 500 µM; MIC ([12]; 48 h): > 500 µM; MIC [13, 23]: > 500 µM; MIC [13, 24]: > 500 µM; MIC [14, 25]: > 500 µM; MIC [14, 26]: > 500 µM; MIC ([15]; CCM1961, 72 h): > 500 µM; MIC ([15]; CCM1961, 120 h): > 500 µM; MIC ([16]; E28, 24 h): > 500 µM; MIC ([16]; E28, 48 h): > 500 µM; MIC [17, 27]: > 500 µM; MIC [17, 28]: > 500 µM; MIC [18]: ≥ 500 µg/mL
O=C(Nc1cnccn1)c1cccc(Cl)c1 [Compound 1k]	50 µg/mL (≈ 214 µM)	> 125 µM	> 125 µM	> 125 µM	> 125 µM	> 100 µg/mL	> 125 µM	> 125 µM	> 125 µM	> 125 µM	50 µg/mL (≈ 214 µM)	147.2 to 149.4 °C	> 125 µM	> 125 µM	> 125 µM	> 125 µM	> 125 µM	> 125 µM	> 125 µM	> 125 µM	M. avium ATCC 15769 MIC ([4]; Middlebrook 7H9 with OADC, pH 6.6, MABA): >100 µg/mL; MIC ([12]; 24 h): > 125 µM; MIC ([12]; 48 h): > 125 µM; MIC [13, 23]: > 125 µM; MIC [13, 24]: > 125 µM; MIC [14, 25]: > 125 µM; MIC [14, 26]: > 125 µM; MIC ([15]; CCM1961, 72 h): > 125 µM; MIC ([15]; CCM1961, 120 h): > 125 µM; MIC ([16]; E28, 24 h): > 125 µM; MIC ([16]; E28, 48 h): > 125 µM; MIC [17, 27]: > 125 µM; MIC [17, 28]: > 125 µM; MIC [18]: ≥ 500 µg/mL
